The structures appear in SMILES notation. ≈ marks a conversion by molar mass, not a printed value.

The test system of one experiment is T1, S. aureus.
T1 construct: NCTC 6571
Also on record: species or system Staphylococcus aureus NCTC 6571; broth growth inhibition, OD600, fitted MIC from dose curve, TSB, 37 C. Conditions: 16 h; inhibitor. Here is the method: Stock solutions of each compound were prepared in 50% DMSO/water at ×100 the final concentration. In a 96-well plate, 2 μL of the test compounds were added to each well. Each plate included the positive control (750 μg mL^−1 chloramphenicol), the negative control (50% DMSO/water) and media only wells. To each test well was then added 198 μL of the required bacteria stock (OD 0.05). E. coli assays were carried out using LB broth, S. aureus were carried out using tryptic soy broth (TSB). Plates were incubated at 37 °C and the OD600 was measured (Epoch 2 Microplate Spectrophotometer, BioTek) every 30 min over a 17 h period. Tests were carried out in triplicate, the background absorbance was removed using reference wells, and the averages were determined. Dose curves were plotting using the OD600 after 16 h growth vs. compound concentration. MICs were defined as the minimum concentration of compound at which no significant growth was observed after 16 h incubation. MIC values were determined using GraphPad Prism (version 8.3.0). The activity of 1–12 was investigated with growth assays against Staphylococcus aureus (NCTC 6571). S. aureus is a virulent Gram-positive pathogen that can cause a wide range of infections in humans.[29,30] Each compound was tested at 400–6 μM concentrations, with lower concentrations tested as required.

For another experiment, the target named is T2, PBP3 (Escherichia coli, UniProt P0AD68).
T2 construct: gene ftsI
T2 sequence (P0AD68 44-588): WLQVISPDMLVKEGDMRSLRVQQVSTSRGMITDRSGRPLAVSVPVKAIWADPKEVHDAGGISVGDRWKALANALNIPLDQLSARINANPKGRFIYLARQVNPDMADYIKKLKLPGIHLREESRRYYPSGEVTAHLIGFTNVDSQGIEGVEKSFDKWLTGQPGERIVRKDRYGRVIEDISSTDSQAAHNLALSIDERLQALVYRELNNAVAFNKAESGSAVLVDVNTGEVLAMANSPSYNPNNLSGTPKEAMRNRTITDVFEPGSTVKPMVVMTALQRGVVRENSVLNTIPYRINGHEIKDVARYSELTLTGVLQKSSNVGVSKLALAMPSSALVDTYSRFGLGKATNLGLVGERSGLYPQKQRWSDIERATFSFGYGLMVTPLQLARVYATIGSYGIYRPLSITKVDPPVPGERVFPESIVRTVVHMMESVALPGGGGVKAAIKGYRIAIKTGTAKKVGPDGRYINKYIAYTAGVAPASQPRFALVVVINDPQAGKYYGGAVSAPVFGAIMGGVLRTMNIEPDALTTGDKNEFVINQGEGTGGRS
Nature of the experiment: biochemical. Details: Thermal shift assay, Protein Thermal Shift dye, 3 uM E. coli PBP3, change in melting temperature. Conditions: read-out: Average DTm/°C. Here is the method:
The thermal shift assay was carried out using the Protein Thermal Shift™ assay kit (Applied Biosystems). 3 μM of purified E. coli PBP3 was incubated with the β-lactam analogues at 300 μM concentration in a mixture containing the Protein Thermal Shift™ Dye. The samples were then heated in a StepOnePlus™ Real-Time PCR System from 25 to 95 °C at a rate of 1 °C min^−1. Tests were carried out in triplicate and the averages plotted as the negative first derivative vs. temperature. Reference wells, i.e. solutions consisting only of only PBP3 with dye, PBP3 only, and dye only, were used as controls. Melting temperature (Tm) values were determined with and without each compound, and the change in melting temperature (ΔTm) was obtained, Fig. 2. The thermal shift assay with PBP4 was carried out using the protocol described for PBP3, with the follow deriviatisation: 500 nM of purified Bacillus subtilis PBP4 was incubated with 50 μM of the β-lactam analogues. A thermal shift assay was used to investigate the binding of the cephalexin analogues to the therapeutic target, PBP, in vitro. This assay provides a fast and inexpensive method of detecting a ligand binding to a protein of interest. Briefly, the protein is gradually heated in the presence of a fluorescent dye that binds non-specifically to the hydrophobic surfaces. […] A change in the melting temperature (Tm) when the protein is heated in the presence of a ligand, indicates a protein–ligand interaction. […] The PBPs can be divided into two main categories: high molecular mass (HMM) and low molecular mass (LMM).[13] PBP3 was chosen as a representative HMM PBP, and PBP4 as a representative LMM PBP. Cephalexin (1) has been previously reported to show good binding affinities for both PBP3 and PBP4.[14] Penicillin (11) and cefpodoxime (12) were included as positive controls. A truncated version of the ftsI gene formed of residues W44-S588, encoding only the soluble domain, was amplified from E. coli BW25113. The resulting construct was inserted into the vector pBADnLIC2005,[40] introducing an N-terminal deca-histidine tag when expressed. The resulting vector was transformed into E. coli MC1061 for expression. Cultures for protein expression were grown in 1 L of Luria–Bertani (LB) broth at 37 °C on an orbital shaker. Expression was induced by addition of 0.01% L-arabinose during mid-log phase of growth. Cultures were further incubated for 16 h at 20 °C, then the cells were harvested by centrifugation. Cell pellets were resuspended in 50 mM KPi pH 7.8, 200 mM NaCl, 10 mM imidazole, 20% glycerol with 1 mM [compound left out] followed by sonication. The lysate was clarified by centrifugation before loading onto a HisTrap HF column (GE Healthcare). To remove any pre-bound ligands, refolding purification was performed by initially washing with the protein unfolding buffer [2 M guanidine HCl, 50 mM KPi (pH 7.8), 200 mM NaCl, 20% glycerol, and 20 mM imidazole] and then performing a gradient wash to the protein refolding buffer [50 mM KPi (pH 7.8), 200 mM NaCl, 20% glycerol, and 20 mM imidazole] before the elution of the protein using the elution buffer [50 mM KPi (pH 7.8), 200 mM NaCl, 20% glycerol, and 500 mM imidazole]. The eluted protein was buffer-exchanged to the buffer 50 mM KPi (pH 7.8), 200 mM NaCl using a HisTrap Desalting (GE Healthcare) column.

A further experiment deals with T3, S. aureus (NCTC 6571).
T3 construct: NCTC 6571
Nature of the experiment: microbe, parasite or virus in culture. Details: minimum bactericidal concentration 50 on agar plates. The note with it: Staphylococcus aureus, NCTC6571; read-out: MBC50 S. aureus (NCTC 6571).

In the case of `CC1=C(C(=O)O)N2C(=O)[C@@H](NC(=O)[C@H](N)c3ccccc3)[C@H]2SC1` [compound 1, cephalexin], the “MIC (S. aureus, best-fit)” value in the experiment on S. aureus came to 1.89e-05 M (≈ 6.57 µg/mL). Moreover, on PBP3, the ΔTm at 300 µM amounted to 1.61 °C. The MBC in the experiment on S. aureus (NCTC 6571) was 400 µM (≈ 139 µg/mL).

As to `CC1=C(C(=O)O)N2C(=O)[C@@H](NC(=O)[C@H](NC(=O)COCC(=O)NCCOCCOCCOCCOCCNC(=O)CCCCCN3C(=O)C=CC3=O)c3ccccc3)[C@H]2SC1` [compound 2, (6R,7R)-7-((R)-30-(2,5-Dioxo-2,5-dihydro-1H-pyrrol-1-yl)-4,8,25-trioxo-2-phenyl-6,12,15,18,21-pentaoxa-3,9,24-triazatriacontanamido)-3-methyl-8-oxo-5-thia-1-azabicyclo[4.2.0]oct-2-ene-2-carboxylic acid], the “MIC (S. aureus, best-fit)” value against S. aureus stood at 9.255e-05 M (≈ 81 µg/mL). In addition, on PBP3, the ΔTm at 300 µM was 4.72 °C. The MBC with S. aureus (NCTC 6571) came to 200 µM (≈ 175 µg/mL).

For `CC1=C(C(=O)O)N2C(=O)[C@@H](NC(=O)[C@H](NC(=O)CCCCCN3C(=O)C=CC3=O)c3ccccc3)[C@H]2SC1` [compound 3, (6R,7R)-7-((R)-2-(6-(2,5-dioxo-2,5-dihyrdo-1H-pyrrol-1-yl)hexanamido)-2-phenylacetamido)-3-methyl-8-oxo-5-thia-1-azabicyclo[4.2.0]oct-2-ene-2-carboxylic acid], the “MIC (S. aureus, best-fit)” value with S. aureus is on record as ~ 5.580e-005 M. The ΔTm at 300 µM on PBP3 was found to be 3 °C. The MBC in the experiment with S. aureus (NCTC 6571) came to 200 µM (≈ 108 µg/mL).

As for `C#CCCC(=O)N[C@@H](C(=O)N[C@@H]1C(=O)N2C(C(=O)O)=C(C)CS[C@H]12)c1ccccc1` [compound 4, (6R,7R)-3-Methyl-8-oxo-7-[(2R)-2-(pent-4-ynamido)-2-phenylacetamido]-5-thia-1-azabicyclo[4.2.0]oct-2-ene-2-carboxylic acid], the “MIC (S. aureus, best-fit)” value against S. aureus is reported as ~ 3.501e-005 M. For the same molecule, the ΔTm at 300 µM at PBP3 is 3.01 °C. In addition, the MBC in the experiment with S. aureus (NCTC 6571) is 50 µM (≈ 21.4 µg/mL).

Regarding `CC1=C(C(=O)O)N2C(=O)[C@@H](NC(=O)[C@H](NC(=O)CCCCC3CCSS3)c3ccccc3)[C@H]2SC1` (stereo partly drawn) [compound 5, (6R,7R)-7-[(2R)-2-[5-(1,2-Dithiolan-3-yl)pentanamido]-2-phenylacetamido]-3-methyl-8-oxo-5-thia-1-azabicyclo[4.2.0]oct-2-ene-2-carboxylic acid], the “MIC (S. aureus, best-fit)” value against S. aureus came to 2.493e-05 M (≈ 13.4 µg/mL). The ΔTm at 300 µM on PBP3 turned out to be 3.01 °C. The MBC in the experiment on S. aureus (NCTC 6571) stood at 50 µM (≈ 26.8 µg/mL).

As for `CC1=C(C(=O)O)N2C(=O)[C@@H](NC(=O)[C@H](NC(=O)CCCC(=O)ON3C(=O)CCC3=O)c3ccccc3)[C@H]2SC1` [compound 6, (6R,7R)-7-[(2R)-2-{5-[(2,5-Dioxopyrrolidin-1-yl)oxy]-5-oxopentanamido}-2-phenylacetamido]-3-methyl-8-oxo-5-thia-1-azabicyclo[4.2.0]oct-2-ene-2-carboxylic acid], the “MIC (S. aureus, best-fit)” value against S. aureus was 8.29e-05 M (≈ 46.3 µg/mL). At PBP3, the ΔTm at 300 µM worked out at 3.21 °C. For the same molecule, the MBC in the experiment with S. aureus (NCTC 6571) amounted to 200 µM (≈ 112 µg/mL).

In the case of `CC1=C(C(=O)O)N2C(=O)[C@@H](NC(=O)[C@H](NC(=O)CCCC(=O)O)c3ccccc3)[C@H]2SC1` [compound 7, (6R,7R)-7-[(2R)-2-(4-Carboxybutanamido)-2-phenylacetamido]-3-methyl-8-oxo-5-thia-1-azabicyclo[4.2.0]oct-2-ene-2-carboxylic acid], the “MIC (S. aureus, best-fit)” value against S. aureus stood at 8.144e-05 M (≈ 37.6 µg/mL). Also, at PBP3, the ΔTm at 300 µM was 3.6 °C. The MBC in the experiment with S. aureus (NCTC 6571) came to 200 µM (≈ 92.3 µg/mL).

Take `CC(=O)N[C@@H](C(=O)N[C@@H]1C(=O)N2C(C(=O)O)=C(C)CS[C@H]12)c1ccccc1` [compound 8, (6R,7R)-7-[(2R)-2-Acetamido-2-phenylacetamido]-3-methyl-8-oxo-5-thia-1-azabicyclo[4.2.0]oct-2-ene-2-carboxylic acid]: the “MIC (S. aureus, best-fit)” value with S. aureus is reported as ~ 5.897e-005 M. Besides, at PBP3, the ΔTm at 300 µM was determined as 3.01 °C. For the same molecule, the MBC in the experiment on S. aureus (NCTC 6571) came to 200 µM (≈ 77.9 µg/mL).

With `CC1=C(C(=O)O)N2C(=O)[C@@H](NC(=O)[C@H](NC(=O)OC(C)(C)C)c3ccccc3)[C@H]2SC1` [compound 9, (6R,7R)-7-[(2R)-2-{[(Tert-butoxy)carbonyl]amino}-2-phenylacetamido]-3-methyl-8-oxo-5-thia-1-azabicyclo[4.2.0]oct-2-ene-2-carboxylic acid], the “MIC (S. aureus, best-fit)” value in the experiment on S. aureus was found to be 1.097e-05 M (≈ 4.91 µg/mL). The ΔTm at 300 µM on PBP3 is 1.61 °C. For the same molecule, the MBC in the experiment on S. aureus (NCTC 6571) turned out to be 50 µM (≈ 22.4 µg/mL).

As for `CC1=C(C(=O)O)N2C(=O)[C@@H](NC(=O)[C@H](NC(=O)CCCCN)c3ccccc3)[C@H]2SC1` [compound 10, (6R,7R)-7-[(2R)-2-(5-Aminopentanamido)-2-phenylacetamido]-3-methyl-8-oxo-5-thia-1-azabicyclo[4.2.0]oct-2-ene-2-carboxylic acid], the “MIC (S. aureus, best-fit)” value against S. aureus turned out to be 5.135e-05 M (≈ 22.9 µg/mL). The ΔTm at 300 µM on PBP3 is 2.81 °C. In the experiment on S. aureus (NCTC 6571), the MBC came to 50 µM (≈ 22.3 µg/mL).

Regarding `COCC1=C(C(=O)O)N2C(=O)[C@@H](NC(=O)/C(=N\OC)c3csc(N)n3)[C@H]2SC1` [compound 12, cefpodoxime], the “MIC (S. aureus, best-fit)” value against S. aureus is 2.094e-05 M (≈ 8.95 µg/mL). Also, at PBP3, the ΔTm at 300 µM came to 4.42 °C. Besides, the MBC in the experiment with S. aureus (NCTC 6571) is 100 µM (≈ 42.7 µg/mL).

The values are drawn from paper PMC9056950, “Synthesis and biochemical evaluation of cephalosporin analogues equipped with chemical tethers” (RSC Advances, 2020).
